What was measured:
recombinant human PAI-1 [1] = target: T1, recombinant human PAI-1 (Homo sapiens, UniProt P05121); experiment: biochemical
Procedure: <Compotion of pH7.4 HEPES Buffer>
(§1) • 0.1 M HEPES • 0.1 M NaCl • […] • 0.1% Polyethylene glycol 8,000 (Hampton Research Corporation) • 2 mM Dimethyldecylphoshine oxide [Apo-10] (Fluka Corporation) [Results]

recombinant rat PAI-1 = target: T2, recombinant rat PAI-1 (Rattus norvegicus, UniProt P20961); experiment: biochemical
T2 sequence (P20961 24-402): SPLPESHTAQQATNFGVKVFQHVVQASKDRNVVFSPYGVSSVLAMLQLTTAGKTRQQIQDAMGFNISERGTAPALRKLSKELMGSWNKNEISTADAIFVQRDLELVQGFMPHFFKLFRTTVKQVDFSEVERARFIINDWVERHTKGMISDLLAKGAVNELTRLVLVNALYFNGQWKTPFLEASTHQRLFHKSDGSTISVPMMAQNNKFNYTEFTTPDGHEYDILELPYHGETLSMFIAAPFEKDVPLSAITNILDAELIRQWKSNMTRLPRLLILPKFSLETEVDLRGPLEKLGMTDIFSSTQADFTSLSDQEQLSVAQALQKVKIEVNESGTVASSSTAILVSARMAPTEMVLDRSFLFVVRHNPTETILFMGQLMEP
Procedure: as §1

[2] = system: Crlj:CD(SD) rat AV shunt model; experiment: Test Example 5: anti-thrombotic activity (rat AV shunt model); assay type: in vivo; conditions: oral, 10 mg/kg/day for 4 days, mean ± S.E., vehicle 72.7 ± 2.7, *p < 0.05
Procedure: The administration on the 4th day was carried out about 1 hour before the following perfusion start. Put a 6.5 cm silk thread (Matsuda Ika Kogyou; […] On the connected part where the silk thread is through, parafilm was wrapped around to avoid blood leakage. […] Saline was filled in the above catheter, and both ends of the catheter were inserted in right carotid artery and […], respectively, and blood was circulated. 30 minutes later, the catheter was pinched with forceps to stop blood flow, and tube parts where the silk thread is through were cut and removed. The silk thread was carefully removed from the tubes, remaining wet weight was weighed after removing the liquid phase by filter paper, and further subtraction of the weight of the silk thread, gives the thrombus weight. For the thrombus weight in each group, an average value±standard error (S.E.) was calculated. […] For the test, the SAS System Release 8.2 (TS2M0) for Windows (Registered Trademark) (SAS Institute Inc.) and its coorperative system […] Ver. 7.10 (Arm Systex Co. Ltd.) were employed.

recombinant human PAI-1 [3] = target: T1, recombinant human PAI-1; experiment: Test Example 1: human PAI-1 inhibitory activity (tPA fluorogenic substrate, pH7.5 Tris buffer); assay type: biochemical; design: purchased Molecular Innovations, Inc; conditions: for Inhibition Rate of Human PAI-1 Activity (%): Tris buffer pH7.5
Procedure: In a 96-well multiplate (black), 1.5 μl of DMSO solution of the present application compound prepared to achieve 80-fold the test concentration (=the final concentration when fluorogenic substrate is added) was diluted with 52.5 μl of pH7.5 Tris buffer. […] Furthermore, 30 μl of 800 IU/ml two-chain tPA (Activity Standard; American diagnostics, inc.) prepared by Tris buffer was added, and the mixed solution was incubated for 15 minutes at room temperature. To this, 30 μl of 400 μM fluorogenic substrate (Pyr-Gly-Arg-MCA; Peptide Institute, Inc.) for tPA prepared by Tris buffer was added and reacted for 30 minutes at room temperature.
<Composition of pH7.5 Tris Buffer)

[4] = read-out: Inhibition Rate of Rat PAI-1 Activity (%)
[5] = pH 7.5, read-out: Inhibition Rate of Human PAI-1 Activity (%)

T1 sequence (P05121 24-402): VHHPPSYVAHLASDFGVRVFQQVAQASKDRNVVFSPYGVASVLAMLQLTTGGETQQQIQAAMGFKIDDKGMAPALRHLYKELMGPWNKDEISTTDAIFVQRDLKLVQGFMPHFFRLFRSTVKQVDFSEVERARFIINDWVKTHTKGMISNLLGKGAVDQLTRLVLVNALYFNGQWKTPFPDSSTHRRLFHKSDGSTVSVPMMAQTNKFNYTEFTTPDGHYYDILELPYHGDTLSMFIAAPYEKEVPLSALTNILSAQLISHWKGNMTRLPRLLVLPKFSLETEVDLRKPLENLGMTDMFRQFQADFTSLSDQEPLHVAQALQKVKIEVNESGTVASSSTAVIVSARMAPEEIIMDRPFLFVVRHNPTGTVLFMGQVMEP

Row | Compound | Inhibition Rate of Human PAI-1 Activity (%) (recombinant human PAI-1 [3]; compound 5 μM) | Inhibition Rate of Human PAI-1 Activity (%) (recombinant human PAI-1 [3]; compound 10 μM) | Inhibition Rate of Human PAI-1 Activity (%) (recombinant human PAI-1 [3]; compound 25 μM) | other results
1 | CC(C)(C)c1ccc(COc2ccc(-c3ccc(OC(F)(F)F)cc3)cc2CCC(=O)O)cc1 [Compound 5, 3-{4-[4-(tert-butyl)benzyloxy]-4′-(trifluoromethoxy)biphenyl-3-yl}propanoic acid] | – | – | – | IC50 (recombinant human PAI-1 [1]): 1270 nM; IC50 (recombinant rat PAI-1): 2800 nM; Thrombus Weight (mg) [2]: 57.5 ± 5.0* mg
2 | CC(C)(C)c1ccc(COc2ccc(-c3ccc(OC(F)(F)F)cc3)cc2CC(=O)O)cc1 [Compound 9, {4-[4-(tert-butyl)benzyloxy]-4′-(trifluoromethoxy)biphenyl-3-yl}acetic acid] | – | – | – | IC50 (recombinant human PAI-1 [1]): 1300 nM; IC50 (recombinant rat PAI-1): 2070 nM
3 | CC(C)(C)c1ccc(Oc2ccc(-c3ccc(OC(F)(F)F)cc3)cc2CCC(=O)O)cc1 [Compound 13, 3-{4-[4-(tert-butyl)phenoxy]-4′-(trifluoromethoxy)biphenyl-3-yl}propanoic acid] | – | – | – | IC50 (recombinant human PAI-1 [1]): 1170 nM; IC50 (recombinant rat PAI-1): 2170 nM; inhibition at 10 µM (recombinant rat PAI-1; [4]): > 99%
4 | O=C(O)CCc1cc(-c2ccccc2)ccc1OCc1ccc(OC(F)(F)F)cc1 [Compound 58, 3-{4-[4-(trifluoromethoxy)benzyloxy]biphenyl-3-yl}propanoic acid] | 19 | 32 | 74 | –
5 | CC(C)(C)c1ccc(COc2ccc(-c3ccc(OC(F)(F)F)cc3)cc2N(Cc2ccccc2)C(=O)C(=O)O)cc1 [Compound 59, N-benzyl-N-{4-[4-(tert-butyl)benzyloxy]-4′-(trifluoromethoxy)biphenyl-3-yl}oxamic acid] | – | – | – | inhibition at 3 µM (recombinant human PAI-1 [1]; pH 7.4, read-out: Inhibition Rate of Human PAI-1 Activity (%)): > 99%; inhibition at 3 µM (recombinant rat PAI-1; [4]): > 99%; inhibition at 10 µM (recombinant rat PAI-1; [4]): > 99%; inhibition at 25 µM (recombinant human PAI-1 [3]; [5]): 81%
6 | COc1ccccc1-c1ccc(OCc2ccc(C(C)(C)C)cc2)c(/C=C/C(=O)O)c1 [Compound 61, (E)-3-{4-[4-(tert-butyl)benzyloxy]-2′-methoxybiphenyl-3-yl}propenoic acid] | 21 | 46 | 95 | –
7 | COc1ccccc1-c1ccc(OCc2ccc(C(C)(C)C)cc2)c(CCC(=O)O)c1 [Compound 62, 3-{4-[4-(tert-butyl)benzyloxy]-2′-methoxybiphenyl-3-yl}propanoic acid] | 22 | 47 | 91 | –
8 | COc1ccc(COc2ccc(-c3ccc(OC(F)(F)F)cc3)cc2CCC(=O)O)cc1 [Compound 66, 3-[4-(4-methoxybenzyloxy)-4′-(trifluoromethoxy)biphenyl-3-yl]propanoic acid] | 15 | 35 | 25 | –
9 | CC(C)(C)c1ccc(COc2ccc(-c3ccc(OC(F)(F)F)cc3)cc2CCc2nnn[nH]2)cc1 [Compound 69, 5-{2-{4-[4-(tert-butyl)benzyloxy]-4′-(trifluoromethoxy)biphenyl-3-yl}ethyl}-1H-tetrazole] | – | – | – | inhibition at 10 µM (recombinant human PAI-1 [3]; [5]): 34%; inhibition at 25 µM (recombinant human PAI-1 [3]; [5]): > 99%
10 | CC(C)(C)c1ccc(COc2ccc(-c3cccc(OC(F)(F)F)c3)cc2/C=C/C(=O)O)cc1 [Compound 70, (E)-3-{4-[4-(tert-butyl)benzyloxy]-3′-(trifluoromethoxy)biphenyl-3-yl}propenoic acid] | 38 | 72 | 93 | –
11 | CC(C)(C)c1ccc(COc2ccc(-c3cccc(OC(F)(F)F)c3)cc2CCC(=O)O)cc1 [Compound 71, 3-{4-[4-(tert-butyl)benzyloxy]-3′-(trifluoromethoxy)biphenyl-3-yl}propanoic acid] | 49 | 74 | 95 | –
12 | CC(C)(C)c1ccc(COc2ccc(-c3ccccc3OC(F)(F)F)cc2/C=C/C(=O)O)cc1 [Compound 72, (E)-3-{4-[4-(tert-butyl)benzyloxy]-2′-(trifluoromethoxy)biphenyl-3-yl}propenoic acid] | 42 | 72 | 93 | –
13 | CC(C)(C)c1ccc(COc2ccc(-c3ccccc3OC(F)(F)F)cc2CCC(=O)O)cc1 [Compound 73, 3-{4-[4-(tert-butyl)benzyloxy]-2′-(trifluoromethoxy)biphenyl-3-yl}propanoic acid] | 52 | 80 | >99 | –
14 | CC(C)(C)c1ccc(-c2ccc(OCc3ccccc3OC(F)(F)F)c(CCC(=O)O)c2)cc1 [Compound 74, 3-{4′-(tert-butyl)-4-[2-(trifluoromethoxy)benzyloxy]biphenyl-3-yl}propanoic acid] | 37 | 70 | 94 | –
15 | CC(C)(C)c1ccc(-c2ccc(OCc3cccc(OC(F)(F)F)c3)c(CCC(=O)O)c2)cc1 [Compound 75, 3-{4′-(tert-butyl)-4-[3-(trifluoromethoxy)benzyloxy]biphenyl-3-yl}propanoic acid] | 40 | 74 | 95 | –
16 | CC(C)(C)c1ccc(-c2ccc(OCc3ccc(C(F)(F)F)cc3)c(CCC(=O)O)c2)cc1 [Compound 77, 3-{4′-(tert-butyl)-4-[4-(trifluoromethyl)benzyloxy]biphenyl-3-yl}propanoic acid] | 47 | 71 | 95 | –
17 | CCCCc1ccc(COc2ccc(-c3ccc(C(C)(C)C)cc3)cc2CCC(=O)O)cc1 [Compound 78, 3-[4′-(tert-butyl)-4-(4-butylbenzyloxy)biphenyl-3-yl]propanoic acid] | 51 | 80 | 93 | –

Source: patent publication US8044236B2, “Carboxilic acid derivatives” (Institute of Medicinal Molecular Design, Inc., priority 2006, dated 2011)
